Where two headings read alike, the source gives them in different places.
Key:
[1] = molecular target: T1, follicle-stimulating hormone (FSH) receptor (Rattus norvegicus, UniProt P20395); test: Rat granulosa EC50 FSH (Assay B); assay type: cell-based; conditions: for EC50: rat granulosa cells, read-out: Assay B: Rat granulosa EC50 FSH; for Emax at 6 µM: read-out: Assay B: percental effect (response) relative to the maximum response of the FSH standard
T1 construct: endogenous in cells; host or cells: primary rat granulosa cells
T1 sequence (P20395 18-692): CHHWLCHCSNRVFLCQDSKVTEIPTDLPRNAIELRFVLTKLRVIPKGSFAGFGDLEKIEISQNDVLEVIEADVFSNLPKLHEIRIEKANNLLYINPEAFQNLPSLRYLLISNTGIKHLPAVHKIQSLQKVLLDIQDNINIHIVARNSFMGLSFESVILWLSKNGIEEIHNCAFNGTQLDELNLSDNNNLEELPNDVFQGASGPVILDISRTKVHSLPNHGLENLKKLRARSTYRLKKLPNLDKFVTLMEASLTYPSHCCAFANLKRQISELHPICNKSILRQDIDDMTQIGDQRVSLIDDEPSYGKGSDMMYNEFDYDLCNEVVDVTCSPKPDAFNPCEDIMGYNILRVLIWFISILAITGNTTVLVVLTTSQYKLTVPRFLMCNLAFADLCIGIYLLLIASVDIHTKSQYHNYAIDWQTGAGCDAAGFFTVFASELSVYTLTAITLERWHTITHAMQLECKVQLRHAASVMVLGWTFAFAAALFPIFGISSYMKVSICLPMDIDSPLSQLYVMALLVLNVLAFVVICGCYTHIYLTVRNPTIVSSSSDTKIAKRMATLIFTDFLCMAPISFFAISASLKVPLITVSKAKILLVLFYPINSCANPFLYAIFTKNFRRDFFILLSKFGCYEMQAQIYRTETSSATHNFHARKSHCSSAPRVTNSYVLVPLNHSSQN
Method: Rat Granulosa EC50 FSH (Assay B)
The assay was performed pursuant to the teaching of Yanofsky et al. (2006) Allosteric activation of the follicle-stimulating hormone (FSH) receptor by selective, nonpeptide agonists (JBC 281(19): 13226-13233, which is incorporated by reference in the disclosure of the invention).

FSHR = molecular target: T2, FSHR (Homo sapiens, UniProt P23945); test: EC50 of cyclic AMP production in CHO FSHR cells + EC20 FSH (Assay A); assay type: cell-based; conditions: CHO FSHR cells + EC20 FSH, cAMP HTRF; read-out: Assay A: EC50 of cyclic AMP production
T2 construct: expressed in transfected cells; host or cells: CHO (Cho-FSHR-LUC-1-1-43)
T2 sequence (P23945 18-695): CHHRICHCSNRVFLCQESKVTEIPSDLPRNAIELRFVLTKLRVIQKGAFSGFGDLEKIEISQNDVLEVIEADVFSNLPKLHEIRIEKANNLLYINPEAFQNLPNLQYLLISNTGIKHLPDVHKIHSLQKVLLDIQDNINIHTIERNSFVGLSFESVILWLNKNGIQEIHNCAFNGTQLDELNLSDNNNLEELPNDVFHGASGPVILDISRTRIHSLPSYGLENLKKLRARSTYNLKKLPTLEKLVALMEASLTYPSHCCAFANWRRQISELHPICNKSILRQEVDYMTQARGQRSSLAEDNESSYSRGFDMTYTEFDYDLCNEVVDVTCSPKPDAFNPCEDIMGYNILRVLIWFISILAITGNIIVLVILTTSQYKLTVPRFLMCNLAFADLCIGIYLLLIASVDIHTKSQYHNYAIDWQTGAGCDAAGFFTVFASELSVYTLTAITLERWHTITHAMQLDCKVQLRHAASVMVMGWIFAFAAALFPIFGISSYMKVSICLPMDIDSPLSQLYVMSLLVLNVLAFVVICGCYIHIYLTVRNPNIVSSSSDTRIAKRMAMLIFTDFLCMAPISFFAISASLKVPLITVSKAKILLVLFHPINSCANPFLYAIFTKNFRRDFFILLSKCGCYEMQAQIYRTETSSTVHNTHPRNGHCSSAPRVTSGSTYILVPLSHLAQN
Method in brief: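 cAMP HTRF read-out (665 nm/620 nm ratio) after 1 h at 37° C of Cho-FSHR-LUC cells treated with serially diluted test compound plus EC20 FSH ([…]) and IBMX (final 200 μM). Responses given as percent of maximal FSH-standard effect.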

| Compound | EC50 [1] [nM] | EC50 (FSHR) [nM] | Emax at 6 µM ([1]; @ 6 μM) [%] | Emax at 6 µM [1] [%] |
| --- | --- | --- | --- | --- |
| COc1cc2c(cc1-c1c[nH]nc1C)-c1c(c(C(=O)N3CCOCC3(C)C)nn1-c1ccsc1)CO2 [Compound 95, (3,3-Dimethyl-morpholin-4-yl)-[7-methoxy-8-(3-methyl-1H-pyrazol-4-yl)-1-thiophen-3-yl-1,4-dihydro-chromeno[4,3-c]pyrazol-3-yl]-methanone] | 100 to 1000 | < 100 |  |  |
| [2H]C([2H])([2H])OCC(C)(C)N(C(=O)c1nn(-c2ccsc2)c2c1COc1cc(OC)c(CC(C)C)cc1-2)C([2H])([2H])[2H] [Compound 83] | 100 to 1000 | < 100 |  |  |
| COc1cc2c(cc1-c1cn(C)nc1C)-c1c(c(C(=O)N(C)C(C)(C)C)nn1-c1ccsc1)CO2 [Compound 150, 8-(1,3-Dimethyl-1H-pyrazol-4-yl)-7-methoxy-1-thiophen-3-yl-1,4-dihydro-chromeno[4,3-c]pyrazole-3-carboxylic acid tert-butyl-methyl-amide] | 100 to 1000 | < 100 |  |  |
| COc1cc2c(cc1-c1cccnc1)-c1c(c(C(=O)N3CCCN(C(=O)C4CCC4)CC3)nn1-c1ccsc1)CO2 [Compound 3, (4-Cyclobutanecarbonyl-[1,4]diazepan-1-yl)-(7-methoxy-8-pyridin-3-yl-1-thiophen-3-yl-1,4-dihydro-chromeno[4,3-c]pyrazol-3-yl)-methanone] | 1000 to 5000 | < 100 |  |  |
| [2H]C([2H])([2H])n1cc(-c2cc3c(cc2OC)OCc2c(C(=O)N4CCOCC4(C)C)nn(-c4ccsc4)c2-3)cn1 [Compound 96] | 100 to 1000 | < 100 |  |  |
| COc1cc2c(cc1-c1ccc(C)s1)-c1c(c(C(=O)N(C)C(C)(C)C)nn1-c1ccsc1)CO2 [Compound 93, 7-Methoxy-8-(5-methyl-thiophen-2-yl)-1-thiophen-3-yl-1,4-dihydro-chromeno[4,3-c]pyrazole-3-carboxylic acid tert-butyl-methyl-amide] | 100 to 1000 | < 100 |  |  |
| COc1cc2c(cc1-c1ccn(C)n1)-c1c(c(C(=O)N3CCOCC34COC4)nn1-c1ccsc1)CO2 [Compound 154, (2,8-Dioxa-5-aza-spiro[3.5]non-5-yl)-[7-methoxy-8-(1-methyl-1H-pyrazol-3-yl)-1-thiophen-3-yl-1,4-dihydro-chromeno[4,3-c]pyrazol-3-yl]-methanone] | 1000 to 5000 | < 100 |  |  |
| COc1cc2c(cc1C1=CCCC1)-c1c(c(C(=O)N(C)C(C)(C)C)nn1-c1ccsc1)CO2 [Compound 149, 8-Cyclopent-1-enyl-7-methoxy-1-thiophen-3-yl-1,4-dihydro-chromeno[4,3-c]pyrazole-3-carboxylic acid tert-butyl-methyl-amide] | 100 to 1000 | < 100 |  |  |
| COc1cc2c(cc1C(N)=O)-c1c(c(C(=O)N(C)C(C)(C)C)nn1-c1ccsc1)CO2 [Compound 50, 7-Methoxy-1-thiophen-3-yl-1,4-dihydro-chromeno[4,3-c]pyrazole-3,8-dicarboxylic Acid 8-amide 3-(tert-butyl-methyl-amide)] | 100 to 1000 | < 100 |  |  |
| [2H]C([2H])([2H])N(C(=O)c1nn(-c2ccsc2)c2c1COc1cc(OC)c(CC(C)C)cc1-2)C1(C)COC1 [Compound 163] | 100 to 1000 | < 100 |  |  |
| COc1cc2c(cc1-c1ccn(C)c1)-c1c(c(C(=O)N3CCN(C(=O)OC(C)(C)C)CC3(C)C)nn1-c1ccsc1)CO2 [Compound 157, 4-[7-Methoxy-8-(1-methyl-1H-pyrrol-3-yl)-1-thiophen-3-yl-1,4-dihydro-chromeno[4,3-c]pyrazole-3-carbonyl]-3,3-dimethyl-piperazine-1-carboxylic acid tert-butyl ester] | 100 to 1000 | 100 to 1000 |  |  |
| COc1cc2c(cc1C=C(C)C)-c1c(c(C(=O)NCCNC(C)=O)nn1-c1ccsc1)CO2 [Compound 7, 7-Methoxy-8-(2-methyl-propenyl)-1-thiophen-3-yl-1,4-dihydro-chromeno[4,3-c]pyrazole-3-carboxylic Acid (2-acetylamino-ethyl)-amide] |  | 1000 to 5000 | 43.5 |  |
| COC(=O)C1CCCN(C(=O)c2nn(-c3ccsc3)c3c2COc2cc(OC)c(C=C(C)C)cc2-3)CC1 (centres unmarked) [Compound 17, 1-[7-Methoxy-8-(2-methyl-propenyl)-1-thiophen-3-yl-1,4-dihydro-chromeno[4,3-c]pyrazole-3-carbonyl]-azepane-4-carboxylic acid methyl ester] | > 5000 | 100 to 1000 |  |  |
| COc1cc2c(cc1OC(C)C)-c1c(c(C(=O)N3CCCC(C(=O)N4CCC4)CC3)nn1-c1ccsc1)CO2 (centres unmarked) [Compound 26, [4-(Azetidine-1-carbonyl)-azepan-1-yl]-(8-isopropoxy-7-methoxy-1-thiophen-3-yl-1,4-dihydro-chromeno[4,3-c]pyrazol-3-yl)-methanone] | > 5000 | 1000 to 5000 |  |  |
| COc1cc2c(cc1CC(C)C)-c1c(c(C(=O)N(C)C(C)(C)C)nn1-c1cccs1)CO2 [Compound 91, 8-Isobutyl-7-methoxy-1-thiophen-2-yl-1,4-dihydro-chromeno[4,3-c]pyrazole-3-carboxylic Acid tert-butyl-methyl-amide] | 1000 to 5000 | < 100 |  |  |
| COc1cc2c(cc1-c1ccns1)-c1c(c(C(=O)N(C)C(C)(C)C)nn1-c1ccsc1)CO2 [Compound 105, 8-Isothiazol-5-yl-7-methoxy-1-thiophen-3-yl-1,4-dihydro-chromeno[4,3-c]pyrazole-3-carboxylic acid tert-butyl-methyl-amide] | < 100 | < 100 |  |  |
| [2H]C([2H])([2H])OCCC1(N(C(=O)c2nn(-c3ccsc3)c3c2COc2cc(OC)c(-c4ccn(C)c4)cc2-3)C([2H])([2H])[2H])COC1 [Compound 198] | < 100 | < 100 |  |  |
| COc1cc2c(cc1S(=O)(=O)C(C)C)-c1c(c(C(=O)N(C)C(C)(C)C)nn1-c1ccsc1)CO2 [Compound 79, 7-methoxy-8-(propane-2-sulfonyl)-1-thiophen-3-yl-1,4-dihydro-chromeno[4,3-c]pyrazole-3-carboxylic Acid tert-butyl-methyl-amide] | > 5000 | < 100 |  |  |
| [2H]C([2H])([2H])OCC1(N(C(=O)c2nn(-c3ccsc3)c3c2COc2cc(OC)c(-c4ccn(C)c4)cc2-3)C([2H])([2H])[2H])COC1 [Compound 113] | 100 to 1000 | < 100 |  |  |
| COc1cc2c(cc1C=C(C)C)-c1c(c(C(=O)NCCN3CCOC3=O)nn1-c1ccsc1)CO2 [Compound 13, 7-Methoxy-8-(2-methyl-propenyl)-1-thiophen-3-yl-1,4-dihydro-chromeno[4,3-c]pyrazole-3-carboxylic acid [2-(2-oxo-oxazolidin-3-yl)-ethyl]-amide] | 1000 to 5000 | 100 to 1000 |  |  |
| COc1cc2c(cc1Br)-c1c(c(C(=O)N(C)C(C)(C)C)nn1-c1ccsc1)CO2 [Compound 4, 8-Bromo-7-methoxy-1-thiophen-3-yl-1,4-dihydro-chromeno[4,3-c]pyrazole-3-carboxylic Acid tert-butyl-methyl-amide] |  | 100 to 1000 |  | 62 |
| COc1cc2c(cc1-c1ccn(C)c1)-c1c(c(C(=O)NC3(C)COC3)nn1-c1ccsc1)CO2 [Compound 99, 7-Methoxy-8-(1-methyl-1H-pyrrol-3-yl)-1-thiophen-3-yl-1,4-dihydro-chromeno[4,3-c]pyrazole-3-carboxylic acid (3-methyl-oxetan-3-yl)-amide] | 100 to 1000 | 100 to 1000 |  |  |

From patent US11365199B2, “Pyrazole compounds as modulators of FSHR and uses thereof” (Merck Patent GmbH, priority 2013, dated 2022)
